From patent US6492426B1, “Use of 1-aminoindan derivatives for treatment of mania in bipolar mood disorder” (priority 1999, dated 2002) come the findings set out here.

Where “and” joins values, the source holds several entries; their conditions need not be identical. Identical values can stand only once.

This experiment deals with amphetamine-induced hyperactivity in rats. Nature of the experiment: amphetamine-induced hyperactivity model of mania in rats (automated activity monitors). The settings on record: for Effect on activity levels of rats (summary): amphetamine-treated rats; for Anti-manic potential from the tested model (conclusion): based on the tested model and doses; for Locomotor activity, 20 min, mean / Vertical activity, 20 min, mean / Locomotor activity, 30 min, mean / Vertical activity, 30 min, mean / Locomotor activity, 10 min, mean / Vertical activity, 10 min, mean / Locomotor activity, 20-10 min, mean / Vertical activity, 20-10 min, mean / Locomotor activity, 30-20 min, mean / Vertical activity, 30-20 min, mean: group mean n=10; for Locomotor activity, 20 min, mean / Vertical activity, 20 min, mean / Locomotor activity, 30 min, mean / Vertical activity, 30 min, mean / Locomotor activity, 10 min, mean / Vertical activity, 10 min, mean / Locomotor activity, 20-10 min, mean / Vertical activity, 20-10 min, mean / Locomotor activity, 30-20 min, mean / Vertical activity, 30-20 min, mean / Locomotor activity, 10 min / Locomotor activity, 20 min / Vertical activity, 20 min / Locomotor activity, 30 min / Vertical activity, 30 min / Vertical activity, 10 min / Locomotor activity, 20-10 min / Vertical activity, 20-10 min / Locomotor activity, 30-20 min / Vertical activity, 30-20 min: 75 mg/kg IP twice, amphetamine 0.5 mg/kg s.c.; for Locomotor activity, 20 min, mean / Vertical activity, 20 min, mean / Locomotor activity, 20 min / Vertical activity, 20 min: cumulative to 20 min; for Locomotor activity, 30 min, mean / Vertical activity, 30 min, mean / Locomotor activity, 30 min / Vertical activity, 30 min: cumulative to 30 min; for Locomotor activity, 10 min, mean / Vertical activity, 10 min, mean / Locomotor activity, 10 min / Vertical activity, 10 min: first 10 min; for Locomotor activity, 20-10 min, mean / Vertical activity, 20-10 min, mean / Locomotor activity, 20-10 min / Vertical activity, 20-10 min: second 10 min interval; for Locomotor activity, 30-20 min, mean / Vertical activity, 30-20 min, mean / Locomotor activity, 30-20 min / Vertical activity, 30-20 min: third 10 min interval; for Locomotor activity, 10 min / Locomotor activity, 20 min / Vertical activity, 20 min / Locomotor activity, 30 min / Vertical activity, 30 min / Vertical activity, 10 min / Locomotor activity, 20-10 min / Vertical activity, 20-10 min / Locomotor activity, 30-20 min / Vertical activity, 30-20 min: individual rat; for Locomotor activity, 20-10 min / Vertical activity, 20-10 min / Locomotor activity, 30-20 min / Vertical activity, 30-20 min: non cumulative. It is filed as in vivo, Sprague Dawley rats. The protocol:
Evaluation of possible anti-bipolar effects of compounds 1 to 4 was effected by an amphetamine-induced hyperactivity model of mania in rats. Each of the compounds was examined in a separate experiment and compared with a control group, treated with the same dose of amphetamine.
Twenty Sprague Dawley rats, weighing 200-250 g served for each of the four (4) experiments. Rats were housed in a colony room with constant temperature (22° C.), 12 h light/dark cycle and free access to food and water. Each experiment consisted of two groups (n=10 per group), one group was treated with the compound (1 to 4) and the other with vehicle solution. In experiments 1-4, the drugs were administered intraperitoneally (IP). All experimental procedures were conducted during the light phase of the light/dark cycle.
Amphetamine (0.5 mg/kg, sub-cutaneous (s.c.), diluted in de-ionized water) was injected into all rats (both groups of each experiment) immediately prior to behavioral testing. In experiments 1 to 4, compounds (R)-N-acetyl aminoindan (1); (S)-N-indanyl glycinamide HCl (2); (rac)-N-(2-aminoacetyl)-1-aminoindan HCl (3); and (S)-N-formyl aminoindan (4) were injected twice intraperitoneally (IP) at a dose of 75 mg/kg, 19 h and 3 h prior to behavioral testing in experiments. All compounds were suspended in a 5% methyl cellulose solution. The vehicle solution was administered to the control animals.
Immediately after amphetamine injection, rats were placed in automated activity monitors and their activity levels were scored every 10 minutes in the 30 minute time span for experiments 1 to 4. Activity scores included separate measurements of horizontal (locomotion) and of vertical (rearing) activity.
Repeated ANOVA measurements were used to examine the effects of compounds 1 to 4 on locomotor and on vertical activity. One factor measured the treatment of the rats using compounds 1 to 4 or the control vehicle; the repeated measure factor was time (three 10 minute intervals). Post hoc LSD (least significant difference) tests were used to determine whether significant differences occurred in different time periods, where relevant.

Setting [1] is: 75 mg/kg IP, 19 h and 3 h before testing, result in words.

For the molecule `Cl.NCC(=O)NC1CCc2ccccc21` (racemic) [Compound 3, (rac)-N-(2-aminoacetyl)-1-aminoindan HCl], the “Locomotor activity, 20 min, mean” value is 1037 counts; the “Vertical activity, 20 min, mean” value is recorded as 32 counts; the “Locomotor activity, 30 min, mean” value is recorded as 1397.4 counts; the “Vertical activity, 30 min, mean” value is on record as 48.3 counts. Also, the “Locomotor activity, 10 min, mean” value was determined as 494.4 counts; the “Vertical activity, 10 min, mean” value came out at 23.1 counts; the “Locomotor activity, 20-10 min, mean” value is on record as 542.6 counts; the “Vertical activity, 20-10 min, mean” value worked out at 8.9 counts. Moreover, the “Locomotor activity, 30-20 min, mean” value worked out at 360.4 counts and the “Vertical activity, 30-20 min, mean” value was 16.3 counts. Also, under setting [1], the “Effect on amphetamine-induced locomotor activity versus control (ANOVA)” value is “significantly reduced locomotor activity” and the “Effect on amphetamine-induced vertical activity versus control (ANOVA)” value is recorded as “similar, albeit non-significant, effect”. Besides, the “Effect on activity levels of rats (summary)” value (75 mg/kg IP, result in words) is “reduced the activity levels”. Moreover, the “Anti-manic potential from the tested model (conclusion)” value (result in words) is “show anti-manic potential”. For the same molecule, the “Locomotor activity, 10 min” value (19 h and 3 h before testing, HCl) is 379 counts and 525 counts and 338 counts and 553 counts and 449 counts and 349 counts and 584 counts and 614 counts and 537 counts and 616 counts. Under “HCl”, the “Locomotor activity, 20 min” value was 1214 counts and 1196 counts and 621 counts and 1303 counts and 862 counts and 663 counts and 1104 counts and 1349 counts and 1095 counts and 963 counts; the “Vertical activity, 20 min” value was 0 counts and 33 counts and 11 counts and 91 counts and 26 counts and 5 counts and 66 counts (2×) and 1 counts and 21 counts; the “Locomotor activity, 30 min” value was 1678 counts and 1507 counts and 691 counts and 1619 counts and 1112 counts and 917 counts and 1576 counts and 1810 counts and 1758 counts and 1306 counts; the “Vertical activity, 30 min” value is 1 counts and 35 counts (2×) and 11 counts and 101 counts and 5 counts and 75 counts and 100 counts and 38 counts and 82 counts. Moreover, for the setting “HCl”, the “Vertical activity, 10 min” value was 0 counts and 17 counts and 7 counts and 27 counts and 11 counts and 5 counts and 36 counts and 58 counts and 16 counts and 54 counts; the “Locomotor activity, 20-10 min” value is 835 counts and 671 counts and 283 counts and 750 counts and 413 counts and 314 counts and 520 counts and 735 counts and 558 counts and 347 counts; the “Vertical activity, 20-10 min” value is 0 counts (2×) and 16 counts and 4 counts and 64 counts and 15 counts and 30 counts and −57 counts and 5 counts and 12 counts; the “Locomotor activity, 30-20 min” value was 464 counts and 311 counts and 70 counts and 316 counts and 250 counts and 254 counts and 472 counts and 461 counts and 663 counts and 343 counts. The “Vertical activity, 30-20 min” value (HCl) was 1 counts and 2 counts and 0 counts (2×) and 10 counts and 9 counts (2×) and 99 counts and 17 counts and 16 counts.

For `CC(=O)N[C@@H]1CCc2ccccc21` [Compound 1, (R)-N-acetyl aminoindan], the “Locomotor activity, 20 min, mean” value worked out at 945.8 counts; the “Vertical activity, 20 min, mean” value is recorded as 22.5 counts; the “Locomotor activity, 30 min, mean” value was determined as 1395.6 counts; the “Vertical activity, 30 min, mean” value stood at 33.8 counts. The “Locomotor activity, 10 min, mean” value is reported as 545.3 counts; the “Vertical activity, 10 min, mean” value came out at 14.2 counts; the “Locomotor activity, 20-10 min, mean” value is listed as 400.5 counts; the “Vertical activity, 20-10 min, mean” value was 8.3 counts. The “Locomotor activity, 30-20 min, mean” value was found to be 449.8 counts; the “Vertical activity, 30-20 min, mean” value is on record as 11.3 counts; the “Locomotor activity, 20 min” value is 930 counts and 677 counts and 1125 counts and 1026 counts and 1147 counts and 802 counts and 800 counts and 794 counts and 1361 counts and 796 counts; the “Vertical activity, 20 min” value was 34 counts and 12 counts (2×) and 18 counts and 29 counts and 37 counts and 28 counts and 11 counts and 39 counts and 5 counts. Moreover, the “Locomotor activity, 30 min” value is 1436 counts and 1027 counts and 1653 counts and 1317 counts and 1776 counts and 1230 counts and 1053 counts and 1150 counts and 2064 counts and 1250 counts; the “Vertical activity, 30 min” value is 62 counts and 18 counts and 20 counts and 31 counts and 53 counts and 38 counts and 12 counts and 21 counts and 76 counts and 7 counts; the “Vertical activity, 10 min” value was 27 counts and 9 counts and 16 counts (2×) and 29 counts and 20 counts and 5 counts and 10 counts and 6 counts and 4 counts; the “Locomotor activity, 20-10 min” value was 330 counts and 229 counts and 407 counts and 286 counts and 577 counts and 376 counts and 405 counts and 332 counts and 680 counts and 383 counts. The “Vertical activity, 20-10 min” value was 7 counts (2×) and 3 counts and 2 counts and 0 counts and 17 counts and 12 counts and 1 counts (2×) and 33 counts; the “Locomotor activity, 30-20 min” value is 506 counts and 350 counts and 528 counts and 291 counts and 629 counts and 428 counts and 253 counts and 356 counts and 703 counts and 454 counts; the “Vertical activity, 30-20 min” value was 28 counts and 6 counts and 2 counts (3×) and 16 counts and 10 counts (2×) and 0 counts and 37 counts. Under setting [1], the “Effect on amphetamine-induced locomotor activity versus control (ANOVA)” value is “significantly reduced locomotion”. Besides, the “Effect on activity levels of rats (summary)” value (75 mg/kg IP, result in words) is listed as “reduced the activity levels”. In addition, the “Anti-manic potential from the tested model (conclusion)” value (result in words) is reported as “show anti-manic potential”. Also, the “Locomotor activity, 10 min” value (19 h and 3 h before testing) was 600 counts and 448 counts and 718 counts and 740 counts and 570 counts and 426 counts and 395 counts and 462 counts and 681 counts and 413 counts.
